Measured values from patent publication US20250351832A1, “PHYTOCHEMICALS AS BIOPESTICIDES AND BIOSTIMULANTS” (KAY BEE BIO ORGANICS PVT. LTD., priority 2024, published 2025).

What was measured:
[1] = test system: Tomato thrips; assay: In vitro bio-efficacy, Tomato thrips (Ex. 57); settings: Dose 0.17 ml/lit
[2] = test system: Potato Bacterial Blight (BLB) (Ralstonia solanacearum); type: in vivo; settings: dose 500 PPM
[3] = test system: Rice Bacterial Blight (BLB) (Xanthomonas oryzae pv. Oryzae); type: in vivo; settings: dose 500 PPM
[4] = test system: Cotton Bacterial Leaf Blight (Xanthomonas citri pv. Malvacearum); assay: Field trial, cotton bacterial leaf blight (Ex. 96); settings: dose 500 PPM

With `CN(C(=O)c1ccccc1)c1cccc(C(=O)Nc2c(Br)cc(C(F)(C(F)(F)F)C(F)(F)F)cc2C(F)(F)F)c1F` [Brofranilide] the “% Corrected Mortality at 72 hrs.” value [1] was 47.37%, the “% Mortality at 72 hrs.” value [1] was 50.0% and the “Total no of dead insects at 72 hrs.” value [1] was 20.0.
`O=[N+]([O-])C(Br)(CO)CO` [Bromopol] was tested, and the “% Disease Infection after 1st spray” value [2] was 24.49%, the “% Disease Infection after 2nd spray” value [2] was 21.79% and the “% Disease Reduction Over Control after 1st spray” value [2] was 53.59%. The “% Disease Reduction Over Control after 2nd spray” value [2] was 71.13%, the “% Increase in yield over control” value ([2]; potato) was 7.64% and the Yield ([2]; potato) was 22.24 t/ha. The “% Disease Infection after 1st spray” value [3] was 22.18%, the “% Disease Infection after 2nd spray” value [3] was 19.63% and the “% Disease Reduction Over Control after 1st spray” value [3] was 61.71%. For the same molecule, the “% Disease Reduction Over Control after 2nd spray” value [3] was 74.02%, the “% Increase in yield over control” value ([3]; rice) was 8.31% and the Yield ([3]; rice) was 4.09 t/ha. For the same molecule, the “% Increase in yield over control” value ([4]; cotton) was 7.93%, the Yield ([4]; cotton) was 24.96 qtl/ha and the “% Disease Infection after 1st spray” value [4] was 30.65%. The “% Disease Infection after 2nd spray” value [4] was 12.86%, the “% Disease Reduction Over Control after 1st spray” value [4] was 47.43% and the “% Disease Reduction Over Control after 2nd spray” value [4] was 81.68%.
